Measured values taken from US11667602B2, “Compounds and their use” (AstraZeneca AB, priority 2020, dated 2023).
Values after ≈ are worked out from the molar mass of the structure shown.

Experiments:
[1] = Human Plasma Protein Binding (Test B); format: in vitro ADME; conditions: fraction unbound (fu)
Protocol: Human Plasma Protein Binding (Test B)
The assay was conducted according to the Human Plasma Protein Binding Assay described in pages 167-170 of Wernevik, J. et al., “A Fully Integrated Assay Panel for Early Drug Metabolism and Pharmacokinetics Profiling”, Assay and Drug Development Technologies, 2020, 18(4), 157-179. Data are reported in Table 36 as fraction unbound (fu) (% free). Where the assay was run multiple times for the same compound, the arithmetic mean is reported.

[2] = Human Liver Microsomal Stability (Test C); format: in vitro ADME; conditions: human, liver microsomes
Protocol: Human Liver Microsomal Stability (Test C)
The assay was conducted according to the Human Liver Microsome Stability Assay described in pages 170-174 of Wernevik, J. et al., “A Fully Integrated Assay Panel for Early Drug Metabolism and Pharmacokinetics Profiling”, Assay and Drug Development Technologies, 2020, 18(4), 157-179. Data are reported in Table 36 as CLint (μl/min/mg protein). Where the assay was run multiple times for the same compound, the arithmetic mean is reported.

[3] = Rat Hepatocyte Stability (Test E); format: in vitro ADME; conditions: rat, hepatocytes, geometric mean if run multiple times
Protocol: Rat Hepatocyte Stability (Test E)
The assay was conducted according to the Rat Hepatocyte Stability Assay described in pages 170-174 of Wernevik, J. et al., “A Fully Integrated Assay Panel for Early Drug Metabolism and Pharmacokinetics Profiling”, Assay and Drug Development Technologies, 2020, 18(4), 157-179. Data are reported in Table 36 as mean Clint(μl/min/10^6 cells). Where the assay was run multiple times for the same compound, the geometric mean is reported.

Solubility (Test F) = format: physicochemical; conditions: arithmetic mean if run multiple times
Protocol: The assay was conducted according to the Solubility Assay described in pages 164-167 of Wernevik, J. et al., “A Fully Integrated Assay Panel for Early Drug Metabolism and Pharmacokinetics Profiling”, Assay and Drug Development Technologies, 2020, 18(4), 157-179. Data are reported in Table 36 as solubility ([…]. Where the assay was run multiple times for the same compound, the arithmetic mean is reported.

human RXFP1 = molecular target: T1, human RXFP1 (Homo sapiens, UniProt Q9HBX9); test: RXFP1 Hu cAMP (Test A); format: cell-based; set-up: expressed in transfected cells; host or cells: Jump-In T-REx CHO-K1 cells (ThermoFisher), induced with 10 ng/ml doxycycline for 24 h; conditions: RXFP1 Hu cAMP; for EC50: read-out: Test A EC50
T1 sequence (Q9HBX9 1-757): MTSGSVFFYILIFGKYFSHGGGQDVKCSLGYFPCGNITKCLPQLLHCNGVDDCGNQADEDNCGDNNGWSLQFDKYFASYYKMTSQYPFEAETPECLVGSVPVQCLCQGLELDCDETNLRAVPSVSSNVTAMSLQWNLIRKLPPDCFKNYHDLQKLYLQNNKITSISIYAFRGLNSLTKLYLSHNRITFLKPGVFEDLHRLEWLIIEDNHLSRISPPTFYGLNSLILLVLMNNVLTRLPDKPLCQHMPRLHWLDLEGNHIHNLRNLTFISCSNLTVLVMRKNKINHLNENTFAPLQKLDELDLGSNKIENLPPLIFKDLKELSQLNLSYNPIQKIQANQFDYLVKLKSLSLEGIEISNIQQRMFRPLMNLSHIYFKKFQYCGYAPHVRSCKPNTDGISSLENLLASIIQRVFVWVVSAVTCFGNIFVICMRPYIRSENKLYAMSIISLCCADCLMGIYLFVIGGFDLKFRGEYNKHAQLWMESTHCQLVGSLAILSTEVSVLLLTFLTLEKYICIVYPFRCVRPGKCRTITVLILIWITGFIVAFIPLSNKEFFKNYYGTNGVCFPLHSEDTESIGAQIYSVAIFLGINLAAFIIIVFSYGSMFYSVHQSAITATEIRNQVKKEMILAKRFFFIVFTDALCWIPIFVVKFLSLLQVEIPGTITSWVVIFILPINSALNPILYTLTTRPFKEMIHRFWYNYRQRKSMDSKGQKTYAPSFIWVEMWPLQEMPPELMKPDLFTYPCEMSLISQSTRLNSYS
Outline: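 Read-out is HTRF signal, inversely proportional to cAMP, converted to cAMP amount by standard curve. Stimulation occurred in inducible CHO-K1 cells expressing the human receptor with phosphodiesterases blocked by 0.5 mM IBMX.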

Structure (SMILES) | Test B Human Plasma Protein Binding (% free) [1] | microsomal CLint [2] | hepatocyte CLint [3] | solubility (Solubility (Test F)) | Test A Sinf (human RXFP1) | EC50 (human RXFP1)
CCOCC1(CNC(=O)[C@H]2[C@@H]3CC[C@@H](C3)[C@H]2NC(=O)c2cc(O[C@H]3CC[C@@](C)(C(=O)O)CC3)c(C#N)cc2OC)CCC1 [Example 104] | 6.4 % free | 59 µL/min/mg | 28 µL/min/1e6 cells | 920 µM (≈ 548 µg/mL) | 122% | 270 nM
COc1cc(C#N)c(O[C@H]2CC[C@@](C)(C(=O)O)CC2)cc1C(=O)N[C@@H]1[C@H]2CC[C@H](C2)[C@@H]1C(=O)NCC(C)(F)F [Example 96] | 26 % free | < 3 µL/min/mg | 24 µL/min/1e6 cells | 890 µM (≈ 487 µg/mL) | 97% | 440 nM
COc1cc(C#N)c(O[C@H]2CC[C@@](C)(C(=O)O)CC2)cc1C(=O)N[C@@H]1[C@H]2CC[C@H](C2)[C@@H]1C(=O)NCC1(CO)CCC1 [Example 75] | 25 % free | < 3 µL/min/mg | 14 µL/min/1e6 cells | 880 µM (≈ 500 µg/mL) | 110% | –
COc1cc(F)c(-c2ccc(C[C@@H](N)C(=O)O)cc2)cc1C(=O)N[C@@H]1[C@H]2CC[C@H](C2)[C@@H]1C(=O)Nc1cccc(S(=O)(=O)C(F)(F)F)c1 [Example 291, (R)-2-Amino-3-(2′-fluoro-4′-methoxy-5′-(((1S,2R,3S,4R)-3-((3-((trifluoromethyl)sulfonyl)phenyl)carbamoyl)bicyclo[2.2.1]heptan-2-yl)carbamoyl)-[1,1′-biphenyl]-4-yl)propanoic acid] | <1.2 % free | 18 µL/min/mg | 22 µL/min/1e6 cells | 13 µM (≈ 8.81 µg/mL) | 106% | 370 nM
COc1cc(C#N)c(O[C@H]2CC[C@@](C)(C(=O)O)CC2)cc1C(=O)N[C@@H]1[C@H]2CC[C@H](C2)[C@@H]1C(=O)NCC1(CC(C)C)CCC1 [Example 106] | 1.7 % free | > 300 µL/min/mg | 29 µL/min/1e6 cells | 170 µM (≈ 101 µg/mL) | 112% | 9.7 nM
COc1cc(F)c(CC2CCC(C)(C(=O)O)CC2)cc1C(=O)NC1C2CCC(C2)C1C(=O)NCC1(C)CCC1 [Example 205, (1R,4r)-4-(2-fluoro-4-methoxy-5-(((1S,2R,3S,4R)-3-(((1-methylcyclobutyl)methyl)carbamoyl)bicyclo[2.2.1]heptan-2-yl)carbamoyl)benzyl)-1-methylcyclohexane-1-carboxylic acid] | 0.58 % free | 49 µL/min/mg | 26 µL/min/1e6 cells | 180 µM (≈ 97.7 µg/mL) | – | –
COc1cc(F)c(C[C@H]2CC[C@@](C)(C(=O)O)CC2)cc1C(=O)N[C@@H]1[C@H]2CC[C@H](C2)[C@@H]1C(=O)NCC1(C)CCC1 [Example 204, (1S,4s)-4-(2-fluoro-4-methoxy-5-(((1S,2R,3S,4R)-3-(((1-methylcyclobutyl)methyl)carbamoyl)bicyclo[2.2.1]heptan-2-yl)carbamoyl)benzyl)-1-methylcyclohexane-1-carboxylic acid] | 0.29 % free | 78 µL/min/mg | 18 µL/min/1e6 cells | 61 µM (≈ 33.1 µg/mL) | – | –

Results, then the molecule that gave them:

Test B Human Plasma Protein Binding (% free) [1] | microsomal CLint [2] | hepatocyte CLint [3] | solubility (Solubility (Test F)) | Test A Sinf (human RXFP1) | EC50 (human RXFP1) | Structure (SMILES)
0.72 % free | 22 µL/min/mg | 22 µL/min/1e6 cells | 130 µM (≈ 79.4 µg/mL) | 111% | 110 nM | COc1cc(F)c(O[C@H]2CC[C@@H](C(=O)O)CC2)cc1C(=O)N[C@@H]1[C@H]2CC[C@H](C2)[C@@H]1C(=O)Nc1cc(F)cc(C(F)(F)F)c1 [Example 29]
0.59 % free | 31 µL/min/mg | 130 µL/min/1e6 cells | 440 µM (≈ 246 µg/mL) | 102% | 420 nM | COc1cc(F)c(O[C@H]2CC[C@@H](C(=O)O)CC2)cc1C(=O)N[C@@H]1[C@H]2CC[C@H](C2)[C@@H]1C(=O)Nc1cccc(Cl)c1 [Example 25]
0.89 % free | 57 µL/min/mg | 84 µL/min/1e6 cells | > 1000 µM | 107% | 130 nM | COc1cc(F)c(-c2ccc([C@@H]3C[C@H]3C(=O)O)nc2)cc1C(=O)N[C@@H]1[C@H]2CC[C@H](C2)[C@@H]1C(=O)Nc1cccc(S(=O)(=O)C(F)(F)F)c1 (single isomer, unassigned) [Example 261, (1R*,2R*)-2-(5-(2-Fluoro-4-methoxy-5-(((1S,2R,3S,4R)-3-((3-((trifluoromethyl)sulfonyl)phenyl)carbamoyl)bicyclo[2.2.1]heptan-2-yl)carbamoyl)phenyl)pyridin-2-yl)cyclopropane-1-carboxylic acid]
0.45 % free | 34 µL/min/mg | 35 µL/min/1e6 cells | 200 µM (≈ 130 µg/mL) | 107% | 19 nM | COc1cc(F)c(O[C@H]2CC[C@@H](C(=O)O)CC2)cc1C(=O)N[C@@H]1[C@H]2CC[C@H](C2)[C@@H]1C(=O)Nc1cccc(S(F)(F)(F)(F)F)c1 [Example 182]
1.8 % free | 29 µL/min/mg | 45 µL/min/1e6 cells | 590 µM (≈ 358 µg/mL) | 97% | 1000 nM | COc1cc(F)c(O[C@H]2CC[C@@H](C(=O)O)CC2)cc1C(=O)N[C@@H]1[C@H]2CC[C@H](C2)[C@@H]1C(=O)Nc1cccc(C(F)(F)F)c1C [Example 24]
3.7 % free | – | – | 860 µM (≈ 468 µg/mL) | – | – | COc1cc(F)c(O[C@H]2CC[C@@](C)(C(=O)O)CC2)cc1C(=O)N[C@H]1[C@@H]2CC[C@@H](C2)[C@H]1C(=O)NCC1(C)CCC1 [Example 3, (1R,4s)-4-(2-Fluoro-4-methoxy-5-(((1R,2S,3R,4S)-3-(((1-methylcyclobutyl)methyl)carbamoyl)bicyclo[2.2.1]heptan-2-yl)carbamoyl)phenoxy)-1-methylcyclohexane-1-carboxylic acid]
6.9 % free | 15 µL/min/mg | 12 µL/min/1e6 cells | 960 µM (≈ 525 µg/mL) | – | – | COc1cc(F)c(O[C@H]2CC[C@@](C)(C(=O)O)CC2)cc1C(=O)N[C@@H]1[C@H]2CC[C@H](C2)[C@@H]1C(=O)N[C@@H](C)C(C)(C)C [Example 45]
11 % free | 7.6 µL/min/mg | 11 µL/min/1e6 cells | 840 µM (≈ 434 µg/mL) | – | – | COc1cc(F)c(O[C@H]2C[C@@](C)(C(=O)O)C2)cc1C(=O)N[C@@H]1[C@H]2CC[C@H](C2)[C@@H]1C(=O)NCC1(C)CCC1 [Example 149, (1S,3s)-3-(2-fluoro-4-methoxy-5-(((1S,2R,3S,4R)-3-(((1-methylcyclobutyl)methyl)carbamoyl)bicyclo[2.2.1]heptan-2-yl)carbamoyl)phenoxy)-1-methylcyclobutane-1-carboxylic acid]
4.3 % free | – | – | > 500 µM | – | – | COc1cc(F)c(O[C@H]2CC[C@@](C)(C(=O)O)CC2)cc1C(=O)N[C@@H]1[C@H]2CC[C@H](C2)[C@@H]1C(=O)NCC1(C)CCC1 [Example 1, (1S,4s)-4-(2-Fluoro-4-methoxy-5-(((1S,2R,3S,4R)-3-(((1-methylcyclobutyl)methyl)carbamoyl)bicyclo[2.2.1]heptan-2-yl)carbamoyl)phenoxy)-1-methylcyclohexane-1-carboxylic acid]
